From the OPERA property sets (Mansouri et al. 2018) come the findings set out here.

Each structure is given as a SMILES string.

`CC(C)n1nnc(Oc2ccc(NC(=O)N(C)C)cc2)n1` showed a logP of 1.45.

The molecule `CN(C)C(=O)Nc1ccc(Oc2nnnn2C(C)(C)C)c(Cl)c1` showed a logP of 2.25.

As to `CNC(=O)N(C)C(=O)Nc1cc(F)ccc1F`, the logP came out at 2.4.

In the case of `Fc1ccccc1C1OCC2ON=C(c3ccccc3)C2CO1` (stereo unspecified), the logP was 2.35. The logP values of the last two molecules are within 0.2 log units of each other.

The molecule `CN(C)C(=O)Nc1ccc(Oc2nnnn2Cc2ccccc2)cc1` displayed a logP of 1.7.

`CNC(=O)N(C)C(=O)Nc1cc(C(C)C)ccc1F` showed a logP of 3.53.

For `C=CCn1nnc(Oc2ccc(NC(=O)N(C)C)cc2)n1`, the logP amounted to 1.65.

In the case of `CNC(=O)N(C)C(=O)Nc1cc(OC)ccc1F`, the logP was 2.14.

`CNC(=O)N(C)C(=O)Nc1cc(OC(C)C)ccc1F`: the logP was found to be 3.08.

Regarding `CN(C)C(=O)Nc1ccc(Oc2nnn(C3CCCCC3)n2)cc1`, the logP was 2.67.

The molecule `CNC(=O)N(C)C(=O)Nc1cc(C2CCCCC2)ccc1F` gave a logP of 4.58.

Turning to `CNC(=O)N(C)C(=O)Nc1cc(-c2ccccc2)ccc1F`, the logP turned out to be 3.78.

On to `CN(C)C(=O)Nc1ccc(Oc2nnn(C)n2)cc1`, for which the logP is 0.63.

In turn, `CN(C)C(=O)Nc1ccc(Oc2nnn(CCC#N)n2)cc1` yielded a logP of 0.28.

In turn, `CCc1ccc(F)c(NC(=O)N(C)C(=O)NC)c1` showed a logP of 3.23.

In turn, `CNC(=O)N(C)C(=O)Nc1cc(C(=O)OC)ccc1F` showed a logP of 2.28.

Turning to `CN(C)C(=O)Nc1ccc(Oc2nnn(C(C)(C)C)n2)cc1`, the logP was determined as 2.08.

With `CNC(=O)N(C)C(=O)Nc1cc(S(=O)(=O)C(C)C)ccc1F`, the logP stood at 1.87.

The molecule `CNC(=O)N(C)C(=O)Nc1cc(I)ccc1F` showed a logP of 3.58.

In the case of `CCOC(=O)Cn1nnnc1Oc1ccc(NC(=O)N(C)C)cc1`, the logP worked out at 0.7.

With `CNC(=O)N(C)C(=O)Nc1ccccc1F`, the logP is 2.12.

Turning to `CCn1nnnc1Oc1ccc(NC(=O)N(C)C)cc1Cl`, the logP was found to be 1.5.

On to `CCCCCCCCn1nnc(Oc2ccc(NC(=O)N(C)C)cc2)n1`, for which the logP is 4.4.

In turn, `CNC(=O)N(C)C(=O)Nc1cc(Cc2ccccc2)ccc1F` displayed a logP of 3.9.

Molecule `CNC(=O)N(C)C(=O)Nc1cc(C(C)=O)ccc1F` yielded a logP of 1.82.

`Cc1ccccc1C1OCC2ON=C(c3ccccc3)C2CO1` (stereo unspecified) had a logP of 2.72.

Molecule `CNC(=O)N(C)C(=O)Nc1cc(C(C)(C)C)ccc1F` displayed a logP of 3.96.

`CNC(=O)N(C)C(=O)Nc1cc([N+](=O)[O-])ccc1F` registered a logP of 2.3.

Molecule `CN(C)C(=O)Nc1ccc(Oc2nnn(Cc3ccccc3)n2)cc1` came in with a logP of 2.25.

`C#CCn1nnc(Oc2ccc(NC(=O)N(C)C)cc2)n1`: the logP came out at 1.65.

For `c1ccc(C2=NOC3COC(c4ccccc4)OCC23)cc1` (stereo unspecified), the lipophilicity (logP) was 3.42.

With `CCCCCCCCn1nnnc1Oc1ccc(NC(=O)N(C)C)cc1`, the log partition coefficient (logP) is 3.96.

For `C#CCn1nnnc1Oc1ccc(NC(=O)N(C)C)cc1`, the logP stood at 1.

In turn, `CCC(CC)c1ccc(F)c(NC(=O)N(C)C(=O)NC)c1` registered a logP of 4.46.

In turn, `CN(C)C(=O)Nc1ccc(Oc2nnnn2C(C)(C)C)cc1` had a logP of 1.65.

As for `CCn1nnc(Oc2ccc(NC(=O)N(C)C)cc2)n1`, the logP was found to be 1.1.
